According to patent US11000555B2, “Method for preparing a limax compound and therapeutic use thereof” (GUANGXI JIUFU BIOTECHNOLOGY CO., LTD, priority 2017, dated 2021):

Tested on: morphine-dependent mice
Assay: Therapeutic effect on naloxone-induced withdrawal symptoms of morphine-dependent mice
Assay type: in vivo, Kunming mice
Settings: for Times of jumping reactions of mice: naloxone 8.0 mg/kg ip
Description: The model of morphine-dependent mice was replicated by the dose-increasing method. […] Group (1) was a blank control group, injected subcutaneously (sc) with normal saline (0.2 ml/10 g), and groups (2)˜(5) were used to replicate the model of morphine-dependent mice by the dose-increasing method.
The administration continued for 3 days for each group. Mice were free to drink and eat. Naloxone (8.0 mg/kg, ip) was given 1 h after administrations on d1 and d3 during the treatment to induce withdrawal symptoms, and jumping reaction in 30 min and body weights before and after the inducement were observed.

**Q.** Which “Numbers of jumping reactions of mice (mice of n = 10)” value (shortened to “Numbers … (mice of n = 10)”) (d 1, high dose 0.8 g/kg ig) does the source give for CC1(C)O[C@H]2CC[C@@]3(C)[C@@H]([C@@H](O)[C@H](O)[C@@H]3[C@@](C)(O)CC[C@@H]3OC(C)(C)[C@H]4CC[C@]3(C)O4)[C@]2(C)CC[C@H]1O [the compound, limaxol A] here?
**A.** 10

**Q.** What about the “Numbers of jumping reactions of mice, percentage” value (from here on “Numbers … percentage”) (d 1, high dose 0.8 g/kg ig) of the same compound?
**A.** 100%

**Q.** What about the “Weight change: body weights of mice before and after induced withdrawal” value (“Weight change: body weights” below) (d 1, high dose 0.8 g/kg ig) of the same compound?
**A.** 0.26 ± 0.21 g

**Q.** What about the “Times of jumping reactions of mice” value (d 1, high dose 0.8 g/kg ig) of the same compound?
**A.** 35.0 ± 12.28 per 30 min

**Q.** And the “Numbers … (mice of n = 10)” value (d 1, low dose 0.4 g/kg ig)?
**A.** 10

**Q.** What about the “Numbers … percentage” value (d 1, low dose 0.4 g/kg ig) of the same compound?
**A.** 100%

**Q.** What about the “Weight change: body weights” value (d 1, low dose 0.4 g/kg ig) of the same compound?
**A.** 0.18 ± 0.13 g

**Q.** What about the “Times of jumping reactions of mice” value (d 1, low dose 0.4 g/kg ig) of the same compound?
**A.** 13.5 ± 10.29 per 30 min

**Q.** What about the “Numbers … (mice of n = 10)” value (d 3, high dose 0.8 g/kg ig) of the same compound?
**A.** 10

**Q.** What about the “Numbers … percentage” value (d 3, high dose 0.8 g/kg ig) of the same compound?
**A.** 100%

**Q.** And the “Weight change: body weights” value (d 3, high dose 0.8 g/kg ig)?
**A.** 0.43 ± 0.23 g

**Q.** And the “Times of jumping reactions of mice” value (d 3, high dose 0.8 g/kg ig)?
**A.** 8.5 ± 2.68 per 30 min

**Q.** What about the “Numbers … (mice of n = 10)” value (d 3, low dose 0.4 g/kg ig) of the same compound?
**A.** 10

**Q.** What about the “Numbers … percentage” value (d 3, low dose 0.4 g/kg ig) of the same compound?
**A.** 100%

**Q.** And the “Weight change: body weights” value (d 3, low dose 0.4 g/kg ig)?
**A.** 0.36 ± 0.28 g

**Q.** What about the “Times of jumping reactions of mice” value (d 3, low dose 0.4 g/kg ig) of the same compound?
**A.** 6.2 ± 5.86 per 30 min

**Q.** What about the “Effect on jumping reaction during induced withdrawal” value (ig, 0.4 and 0.8 g/kg) of the same compound?
**A.** inhibited jumping reaction

**Q.** What about the “Effect on weight loss of the morphine-dependent mice” value (ig, 0.4 and 0.8 g/kg) of the same compound?
**A.** inhibited weight loss
